Experimental data as given in patent US20230123585A1, “COMPOSITIONS AND METHODS FOR TREATING OR PREVENTING CANCER USING DEUBIQUITINASE INHIBITORS” (The University of Chicago, priority 2020, published 2023).

Test system: pluripotency transcripts in R-WT mESCs
Assay: Turnover of m^6A-labeled pluripotency transcripts by qPCR after actinomycin D in mESCs
Assay type: cell-based, mouse
Details: 10 μM PD0325901, 5 μg/ml actinomycin D
Excerpt: FIGS. 4A-4E: Phosphorylation of METTL3/WTAP by ERK Facilitates Resolution of Pluripotency. (A) LC-MS/MS quantification of the m^6A/A ratio in mRNA of mESC stable transfectants. (B) Representative flow cytometry analyses of mESC stable transfectants for the activity of alkaline phosphatase (AP) and expression of stage-specific embryonic antigen-1 (SSEA-1). (C) qPCR analysis of pluripotency genes in R-3A2A versus R-WT mESCs. (D) Relative levels of Nanog, measured by qPCR, at the indicate times after 5 μg/ml actinomycin D treatment. mRNA levels were monitored in R-WT (black), R-WT with 10 μM PD0325901 (green), and R-3A2A (red) mESC. (E) qPCR analysis for pluripotency and differentiation markers expression after 8 days of embryonic body (EB) induction. Error bars indicated SD (n=3). (See also FIG. 12.)
FIGS. 12A-12I: Phosphorylation of METTL3/WTAP by ERK Facilitates Resolution of Pluripotency. (A) Representative phase-contrast microscopy showing colony size of R-3A2A versus R-WT mESC cells. (B) Cell growth of R-WT and R-3A2A mESCs were measured by sulforhodamine B dye (SRB assay). […] (D-H) Relative levels of Zfp42, Klf2, Sox2, Lefty1, and Pou5f 1, measured by qPCR, at the indicate times after 5 μg/ml actinomycin D treatment. mRNA levels were monitored in R-WT (black), R-WT with 10 μM PD0325901 (green), and R-3A2A (red) mESCs. […]

## O=C(NOC[C@H](O)CO)c1ccc(F)c(F)c1Nc1ccc(I)cc1F [PD0325901]
  turnover of m^6A-labeled pluripotency transcripts after transcription arrest: delayed turnover
